Patent US12115208B2, “Small-molecule adjuvants for antibiotics to address antibiotic resistance” (HIGH POINT UNIVERSITY, priority 2017, dated 2024)

Experiments:
S. aureus USA300 biofilm = assay: Biofilm inhibition, crystal violet assay; format: cell-based; conditions: Staphylococcus aureus, S. aureus USA300 (MRSA), 30 h
Procedure: (§1) A standard static crystal violet assay was used to quantify biofilm inhibition.^45 Cultures of S. aureus or S. epidermidis were grown overnight in TSBG (tryptic soy broth with 5% glucose) at 37° C. with shaking. These cultures were used to inoculate fresh TSBG to a calculated optical density of 0.01 at 600 nm (OD600). […] Untreated aliquots were used as a positive control and water served as a negative control. 100 μl of these suspensions were added to the wells of a 96-well polyvinylchloride microtiter plate. […] After incubation, media was discarded and the plates were washed with water to remove non-adherent cells. Adherent biofilms were stained with 110 μl of crystal violet (0.1% in water) and incubated at room temperature for thirty minutes. The crystal violet staining solution was discarded and plates were washed with water to remove excess stain. The resulting stained biofilms were solubilized with 200 μL of 95% ethanol for 10 minutes. 125 μl of the ethanol solutions were transferred to a clear polystyrene microtiter plate for evaluation. Absorbance at 540 nm was recorded using a BioTek Synergy H1 microplate reader. The absorbance of the negative control lanes was subtracted from the experimental values to account for background staining. Percent inhibition was calculated by comparison of the absorbance values of control versus treated wells under identical conditions.
Antibiotic resistance and biofilm formation share similar regulatory mechanisms. […] Biofilm inhibition was first assessed in S. aureus 43300, a methicillin-resistant strain (see Table 18). As described in Materials and Methods, a standard crystal violet assay was used to assess biofilm inhibition by the tested compounds. The IC50 is described as the compound concentration required to inhibit 50% of biofilm formation. The standard deviation is calculated from at least 3 independent experiments.
The biofilm inhibition activity of loratadine was further explored in other strains of S. aureus. Loratadine was capable of inhibiting biofilm formation in all tested strains of S. aureus, including methicillin-resistant and vancomycin-resistant strains.

[1] = tested on: S. aureus NR-49120 (VRSA); assay: Antibiotic repotentiation (antibiotic MIC with/without compound); format: cell-based, Staphylococcus aureus; conditions: +50 μM compound, S. aureus NR-49120 (VRSA)
Procedure: (§2) The overnight culture was diluted into fresh CAMHB to a concentration of 5×10^5 CFU/ml. […] On the same plate, a standard microdilution MIC with the tested antibiotics and no added compound was also performed to compare the antibiotic MIC in the presence and absence of compound. […] Fold reductions were calculated by dividing the MIC of the antibiotic without compound by the MIC of the antibiotic in the presence of compound.

S. aureus USA100 (MRSA) = assay: as above; format: cell-based, Staphylococcus aureus; conditions: +50 μM compound, S. aureus USA100 (MRSA)
Procedure: as §2

S. epidermidis 49461 = assay: Antibiotic repotentiation (oxacillin MIC with/without compound); format: cell-based, Staphylococcus epidermidis; conditions: +50 μM compound, S. epidermidis 49461
Procedure: as §2
Antibiotic potentiation in S. epidermidis was also investigated.

S. aureus USA300 (MRSA) = assay: Minimum inhibitory concentration, broth microdilution; format: cell-based, Staphylococcus aureus; conditions: Staphylococcus aureus; compound alone; S. aureus USA300 (MRSA); CAMHB, 18 h; read-out: MIC
Procedure: (§3) The compounds were then analyzed for antibiotic repotentiation activity. […] The tested strains included USA300, which is a common and particularly virulent strain of community-acquired MRSA.

[2] = tested on: S. aureus ATCC 43300 (MRSA); assay: as above; format: cell-based, Staphylococcus aureus; conditions: Staphylococcus aureus; compound alone; S. aureus ATCC 43300 (MRSA); CAMHB, 18 h; read-out: MIC
Procedure: as §3

[3] = tested on: S. epidermidis ATCC 49461 biofilm; assay: Biofilm inhibition, crystal violet assay; format: cell-based, Staphylococcus epidermidis; conditions: Staphylococcus epidermidis, ATCC49461, 30 h, read-out: Inhibition of biofilm formation IC50
Procedure: as §1

CCOC(=O)N1CCC(=C2c3ccc(Cl)cc3CCc3cccnc32)CC1 [Loratadine, ethyl 4-(8-chloro-5,6-dihydrobenzo[1,2]cyclohepta[2,4-b]pyridin-11-ylidene)piperidine-1-carboxylate]
IC50 (S. aureus USA300 biofilm): 32.8 ± 5.9 µM
Oxacillin MIC [1]: 16 µg/mL
Fold Reduction ([1]; oxacillin MIC): 8
Oxacillin MIC (S. aureus USA100 (MRSA)): 0.5 µg/mL
Fold Reduction (S. aureus USA100 (MRSA); oxacillin MIC): 512
Oxacillin MIC (S. epidermidis 49461): 16 µg/mL
Fold Reduction (S. epidermidis 49461; oxacillin MIC): 1
MIC (S. aureus USA300 (MRSA)): > 200 µM
MIC [2]: > 200 µM
IC50 [3]: 25.1 ± 3.65 µM
